Test results taken from patent US20250304571A1, “BIOLOGICALLY ACTIVE COMPOUNDS AND METHODS THEREOF” (Suzhou Keen Therapeutics Co., Ltd., priority 2022, published 2025).

The molecules below were run on 786-O (renal cell carcinoma) cells (assay: Cell viability (CellTiter Glo) assay, inhibition of 786-O cell proliferation). Details: 786-O cells, 72 hours, CellTiter Glo; read-out: IC50, inhibition of 786-O cell proliferation.
Assay type: cell-based

Structure (SMILES)	IC50 [nM]
CC1(C)C(=O)N(c2ccc(N3CCOCC3)cc2)c2nc(COC(=N)N3CCCCC3C(F)(F)F)nc(N)c21 (stereo not shown) [Compound E172]	< 100

Same assay, conditions: Homo sapiens, 786-0, 72 h, read-out: IC50, inhibition of 786-O cell proliferation

Structure (SMILES)	IC50 [nM]
CN1CCN=C1OCc1ncc2c(n1)N(c1ccc(Oc3ccccc3)cc1)CC2(C)C [Compound E140]	500 to 5000
CN(C)C(=N)OCc1ncc2c(n1)N(c1ccc(OC3CCOCC3)nc1)CC21CC1 [Compound E147]	> 5000

Same assay, conditions: Homo sapiens, 786-0; 786-O cells, 72 hours, CellTiter Glo; read-out: IC50, inhibition of 786-O cell proliferation

Structure (SMILES)	IC50 [nM]
CN(CC(F)(F)F)C(=N)OCc1ncc2c(n1)N(c1ccc(Oc3ccccc3)cc1)CC2(C)C [Compound E136]	< 100
CC(C)N(CC(F)(F)F)C(=N)OCc1ncc2c(n1)N(c1ccc(Oc3ccccc3)cc1)CC21CC1 [Compound E137]	< 100
CC(C)N(CC(F)(F)F)C(=N)OCc1ncc(C(C)(C)O)c(Nc2ccc(Oc3ccccc3)cc2)n1 [Compound E138]	100 to 500
CC(C)N(CC(F)(F)F)C(=N)OCc1ncc2c(n1)N(c1ccc(OC3CC3)nc1)C(=O)C21CC1 [Compound E139]	500 to 5000
CC(C)N(CC(F)(F)F)C(=N)OCc1ncc2c(n1)N(c1ccc(N3CCOCC3)nc1)CC21CC1 [Compound E141]	100 to 500
CC(C)N(CC(F)(F)F)C(=N)OCc1ncc2c(n1)N(c1cccc(Oc3ccccc3)c1)CC21CC1 [Compound E142]	500 to 5000
CC(C)N(CC(F)(F)F)C(=N)OCc1ncc2c(n1)N(c1ccccc1Oc1ccccc1)CC21CC1 [Compound E143]	100 to 500
CC(C)N(CC(F)(F)F)C(=N)OCc1ncc2c(n1)N(c1cccc(OC3CCOCC3)c1)CC21CC1 [Compound E144]	500 to 5000
CC(C)N(CC(F)(F)F)C(=N)OCc1ncc2c(n1)N(c1ccc(OC3CCOCC3)cc1)CC21CC1 [Compound E145]	100 to 500
N=C(OCc1ncc2c(n1)N(c1ccc(OC3CCOCC3)nc1)CC21CC1)N1CC(F)(F)C1 [Compound E146]	500 to 5000
CC(C)N(CC(F)(F)F)C(=N)OCc1ncc2c(n1)N(c1ccc(N3CCOCC3)nc1)C(=O)CC2 [Compound E148, 1-isopropyl-2-[[8-(6-morpholino-3-pyridyl)-7-oxo-5,6-dihydropyrido[2,3-d]pyrimidin-2-yl]methyl]-1-(2,2,2-trifluoroethyl)isourea]	> 5000
CC(C)N(CC(F)(F)F)C(=N)OCc1ncc2c(n1)N(c1ccc(N3CCOCC3)nc1)C(=O)C21CC1 [Compound E149]	500 to 5000
CC(C)N(CC(F)(F)F)C(=N)OCc1ncc2c(n1)N(c1ccc(N3CCCCC3)nc1)C(=O)C21CC1 [Compound E150]	100 to 500
CN1CCCN=C1OCc1ncc2c(n1)N(c1ccc(Oc3ccccc3)cc1)CC2(C)C [Compound E151, 5,5-dimethyl-2-(((1-methyl-1,4,5,6-tetrahydropyrimidin-2-yl)oxy)methyl)-7-(4-phenoxyphenyl)-6,7-dihydro-5H-pyrrolo[2,3-d]pyrimidine]	> 5000

Next, values leading:

IC50 [nM]	Structure (SMILES)
< 100	CNc1nc(COC(=N)N2CCCC2C(F)(F)F)nc2c1C(C)(C)C(=O)N2c1ccc(N2CCOCC2)cc1 (stereo not shown) [Compound E152, [5,5-dimethyl-4-(methylamino)-7-(4-morpholinophenyl)-6-oxo-pyrrolo[2,3-d]pyrimidin-2 yl]methyl 2-(trifluoromethyl)pyrrolidine-1-carboximidate]
< 100	CNc1nc(COC(=N)N2CCCCC2C(F)(F)F)nc2c1C(C)(C)C(=O)N2c1ccc(N2CCOCC2)cc1 (stereo not shown) [Compound E153]
< 100	[2H]C([2H])(OC(=N)N(CC(F)(F)F)C(C)C)c1nc(N)c2c(n1)N(c1ccc(OC3CCCCC3)cc1)CC2(C)C [Compound E154, ethyl (4-amino-7-(4-(cyclohexyloxy)phenyl)-5,5-dimethyl-6,7-dihydro-5H-pyrrolo[2,3-d]pyrimidin-2-yl)methyl-d2 isopropyl(2,2,2-trifluoroethyl)carbamimidate]
< 100	[2H]C([2H])(OC(=N)N1CCCCC1C(F)(F)F)c1nc(N)c2c(n1)N(c1ccc(OC3CCCCC3)cc1)CC2(C)C (stereo not shown) [Compound E155]
500 to 5000	CC(C)N(CC(F)(F)F)C(=N)OCc1ncc(C2CCCCO2)c(Nc2ccc(N3CCOCC3)nc2)n1 (stereo not shown) [Compound E156, (4-((6-morpholinopyridin-3-yl)amino)-5-(tetrahydro-2H-pyran-2-yl)pyrimidin-2-yl)methyl isopropyl]
> 5000	CC(C)N(CC(F)(F)F)C(=N)OCc1ncc2c(n1)N(c1ccc(N3CCOCC3)cc1)C(=O)C21CCOCC1 [Compound E157, (7′-(4-morpholinophenyl)-6′-oxo-2,3,5,6,6′,7′-hexahydrospiro[pyran-4,5′-pyrrolo[2,3-d]pyrimidin]-2′-yl)methyl isopropyl(2,2,2-trifluoroethyl)carbamimidate]
500 to 5000	CC(C)N(CC(F)(F)F)C(=N)OCc1nc(Cl)c2c(n1)N(c1ccc(OC3CCCCC3)nc1)C(=O)C2(C)C [Compound E158, (4-chloro-7-(6-(cyclohexyloxy)pyridin-3-yl)-5,5-dimethyl-6-oxo-6,7-dihydro-5H-pyrrolo[2,3-d]pyrimidin-2-yl)methyl isopropyl(2,2,2-trifluoroethyl)carbamimidate]
100 to 500	CC(C)N(CC(F)(F)F)C(=N)OCc1ncc2c(n1)N(c1ccc(C3CCCCC3)cc1)C(=O)C21CC1 [Compound E159]
500 to 5000	CC(C)N(CC(F)(F)F)C(=N)OCc1ncc2c(n1)N(c1ccc(C3CCCCC3)nc1)C(=O)C21CC1 [Compound E160]
100 to 500	CCCCOc1ccc(N2C(=O)C3(CC3)c3cnc(COC(=N)N(CC(F)(F)F)C(C)C)nc32)cc1 [Compound E161]
500 to 5000	CC(C)N(CC(F)(F)F)C(=N)OCc1ncc2c(n1)N(c1ccc(N3CCOCC3)cc1)C(=O)C21CC1 [Compound E162]
100 to 500	CC(C)N(CC(F)(F)F)C(=N)OCc1ncc2c(n1)N(c1ccc(N3CCCCC3)cc1)C(=O)C21CC1 [Compound E163]
< 100	CCCCCCOc1ccc(N2C(=O)C3(CC3)c3cnc(COC(=N)N(CC(F)(F)F)C(C)C)nc32)cc1 [Compound E164]
> 5000	CC(C)N(CC(F)(F)F)C(=N)OCc1ncc2c(n1)N(c1ccc(O)cc1)C(=O)C21CC1 [Compound E165]
< 100	CNc1nc(COC(=N)N(CC(F)(F)F)C(C)C)nc2c1C1(CC1)C(=O)N2c1ccc(N2CCCCC2)nc1 [Compound E166]
< 100	CC(C)N(CC(F)(F)F)C(=N)OCc1nc(N)c2c(n1)N(c1ccc(OC3CCCCC3)nc1)C(=O)C2(C)C [Compound E167]
< 100	CNc1nc(COC(=N)N(CC(F)(F)F)C(C)C)nc2c1C(C)(C)C(=O)N2c1ccc(OC2CCCCC2)nc1 [Compound E168]
100 to 500	CNc1nc(COC(=N)N(C)C2COC2)nc2c1C(C)(C)C(=O)N2c1ccc(OC2CCCCC2)cc1 [Compound E169]
< 100	CC1(C)C(=O)N(c2ccc(N3CCOCC3)cc2)c2nc(COC(=N)N3CCCC3C(F)(F)F)nc(N)c21 (stereo not shown) [Compound E170]
< 100	CNc1nc(COC(=N)N2CCCCC2C(F)(F)F)nc2c(-c3ccc(N4CCOCC4)cc3OC)csc12 (stereo not shown) [Compound E171]
< 100	CNc1nc(COC(=N)N2CCCC2C(F)(F)F)nc2c1C(C)(C)C(=O)N2c1ccc(OC2CCCCC2)cc1 (stereo not shown) [Compound E173]
< 100	CNc1nc(COC(=N)N2CCCCC2C(F)(F)F)nc2c1C(C)(C)C(=O)N2c1ccc(OC2CCCCC2)cc1 (stereo not shown) [Compound E174]
< 100	CCNc1nc(COC(=N)N2CCCC2C(F)(F)F)nc2c1C(C)(C)C(=O)N2c1ccc(N2CCOCC2)cc1 (stereo not shown) [Compound E175]
